Test results published in patent US4918056A, “2-substituted arabinopyranosyl nucleosides and nucleotides” (priority 1986, dated 1990).

Tests used:
L1210/5-FU leukemia = experiment: Therapeutic activity in DBA/2N mice with 5-FU resistant L1210 leukemia; format: in vivo, mouse (DBA/2N female); settings: for Median survival: control 9; for Mean ± SD survival: control 9.25 ± 0.2
Experimental: (§1) In conducting the evaluations, the activity was tested against intraperitoneal (i.p.) implanted leukemia in mice.
(§2) DBA/2N female mice (20 g) were implanted i.p. with 1×10^6 L1210 leukemia cells on day 0. Mice were weighed and inspected for tumor growth and survival daily. […] Dosages varied from 1 to 800 mg/kg/day (mkd).
(§3) Survival time was measured in days after tumor implantation. % ILS (increase in life span) was based on mean survival.
(§4) Testing was followed as described in the NCI protocol and evaluation by comparison of median survival time (ST) of the treated animals to that of the control animals by the percentage increase in % ILS.
(§5) Drug resistant L1210 leukemia cell sublines were obtained from the National Cancer Institute. […] Eight mice were used as controls and five mice for each drug dosage group. Drugs were administered i.p. once per day on days 1, 2, 3, 4 and 5.

M5076 sarcoma = experiment: Therapeutic activity in C57/B16 mice with s.c. M5076 sarcoma; format: in vivo, mouse (C57/B16 female); settings: days 3-7; for % ILS (increase in life span): based on median survival; for Half Maximal Tumor Volume: control 32; for Median survival: control 37
Experimental: (§6) The therapeutic activity of 85024 was evaluated in C57/B16 female mice implanted s.c. with either Lewis lung carcinoma or M5076 sarcoma (Table 5).
(§7) C57/B16 female mice were implanted s.c. using a trochar on day 0 with a 50 mg piece of either Lewis lung carcinoma of M5076 sarcoma. Drugs were administered i.p. once daily on days 3, 4, 5, 6 and 7. Tumor size (two perpendicular diameters) was measured with calipers and volume was estimated algebraically. Survival was monitored daily for 60 days. % ILS (increase in life span) is based on median survival.

L1210/ara-C leukemia = experiment: Therapeutic activity in DBA/2N mice with ara-C resistant L1210 leukemia; settings: for Median survival: control 7; for Mean ± SD survival: control 7.1 + 0.1
Experimental: as §1, §2, §3, §4, §5

L1210 leukemia cells [1] = experiment: L1210 leukemia cell growth inhibition (48 hr, Coulter counter); format: cell-based, mouse; settings: Mus musculus, L1210, RPMI 1640, 10% fetal calf serum
Experimental: Compounds 85024, 85023, 85058, 85027 and 85060 having a glycosidic linkage between the 2'carbon of the arabinose (in pyranose configuration) and base were evaluated for their growth inhibitory action on L1210 leukemia cells maintained in RPMI 1640 medium supplemented with 10% fetal calf serum and 16 mM HEPES, pH 7.2. Cellular growth inhibition was determined by incubating […] for 48 hr in 2 ml of media containing varying concentrations of drugs. Cell growth inhibition (50% growth inhibitory concentration, IC50) was determined after counting cells with a Coulter counter (Bernacki et al., Cancer Res. 45, 695, 1985). Drug concentrations which inhibited cell growth by 50% (IC50) are listed for each compound in Table 1.

Lewis lung carcinoma = experiment: Therapeutic activity in C57/B16 mice with s.c. Lewis lung carcinoma; format: in vivo, mouse (C57/B16 female); settings: for % ILS (increase in life span): based on median survival; for Median survival: control 22
Experimental: as §6, §7

L1210 leukemia cells [2] = experiment: Reversal of L1210 growth inhibition by salvageable nucleosides; format: cell-based, mouse
Experimental: Reversal studies were conducted as follows: […], 85027 or 5-FdUr were added at various concentrations near their IC50 to cultures of L1210 leukemia cells, maintained in PRMI 1640 medium supplemented with 10% fetal calf serum and 16mM HEPES, pH 7.2 as described in Example 9. Nucleosides including thymidine (1×10^-5 M), uridine (1×10^-4 M), deoxyuridine ([…]), adenosine (1×10^-4 M), or guanosine (1×10^-5 M) were also added to identical drug (85024, 85027 or 5-FdUr) containing L1210 leukemia cultures. Cellular growth inhibition or its prevention by the addition of salvageable nucleosides was determined 48 hours later by counting cells using an electronic Coulter Counter.

SMILES: COC1OC[C@@H](OC(C)=O)[C@@H](OC(C)=O)[C@]1(F)n1ccc(=O)[nH]c1=O (stereo partly drawn) [compound 85024, Methyl 3,4-di-0-acetyl-2-deoxy-2(R)-[1H,3H-2,4-dioxo-1-pyrimidinyl]-2-fluoro-α-D-arabinopyranoside [5a] and methyl 3,4-di-0-acetyl-2-deoxy-2(R)-[1H,3H-2,4-dioxo-1-pyrimidinyl]-2-fluoro-β-D-arabinopyranoside [6a]]
- Mean Animal Weight (L1210/5-FU leukemia; 100 mkd × 5 i.p.): 20.6 g
- Survival Range (L1210/5-FU leukemia; 100 mkd × 5 i.p.): 9 to 12 days
- % ILS (increase in life span) (L1210/5-FU leukemia; 100 mkd × 5 i.p., P <.05): 22%
- Median survival (L1210/5-FU leukemia; 100 mkd × 5 i.p.): 11 days
- Mean ± SD survival (L1210/5-FU leukemia; 100 mkd × 5 i.p.): 10.6 ± .5 days
- Mean Animal Weight (L1210/5-FU leukemia; 200 mkd × 5 i.p.): 20.2 g
- Survival Range (L1210/5-FU leukemia; 200 mkd × 5 i.p.): 9 to 11 days
- % ILS (increase in life span) (L1210/5-FU leukemia; 200 mkd × 5 i.p., P 0.1): 11%
- Median survival (L1210/5-FU leukemia; 200 mkd × 5 i.p.): 10 days
- Mean ± SD survival (L1210/5-FU leukemia; 200 mkd × 5 i.p.): 10 ± 0.4 days
- % ILS (increase in life span) (L1210/5-FU leukemia; 500 mkd × 5 i.p.): -34%
- Mean Animal Weight (L1210/5-FU leukemia; 500 mkd × 5 i.p.): 15.9 g
- Survival Range (L1210/5-FU leukemia; 500 mkd × 5 i.p.): 6 to 7 days
- Median survival (L1210/5-FU leukemia; 500 mkd × 5 i.p.): 6 days
- Mean ± SD survival (L1210/5-FU leukemia; 500 mkd × 5 i.p.): 6.4 ± 0.2 days
- effect on tumor size (M5076 sarcoma; 400 mg/kg/day i.p.): statistically significant decrease in tumor size
- % ILS (increase in life span) (M5076 sarcoma; 50 mkd × 5 i.p.): 0%
- Half Maximal Tumor Volume (M5076 sarcoma; 50 mkd × 5 i.p., p < 0.05): 35 days
- Median survival (M5076 sarcoma; 50 mkd × 5 i.p.): 36 days
- Survival Range (M5076 sarcoma; 50 mkd × 5 i.p., one animal survived for 60 days but bore a large, frank tumor): 34 to 60 days
- Survival Range (M5076 sarcoma; 200 mkd × 5 i.p.): 36 to 42 days
- % ILS (increase in life span) (M5076 sarcoma; 200 mkd × 5 i.p.): 0%
- Half Maximal Tumor Volume (M5076 sarcoma; 200 mkd × 5 i.p.): 35 days
- Median survival (M5076 sarcoma; 200 mkd × 5 i.p.): 37 days
- Survival Range (M5076 sarcoma; 400 mkd × 5 i.p.): 33 to 47 days
- % ILS (increase in life span) (M5076 sarcoma; 400 mkd × 5 i.p.): 14%
- Half Maximal Tumor Volume (M5076 sarcoma; 400 mkd × 5 i.p., p < 0.05): 38 days
- Median survival (M5076 sarcoma; 400 mkd × 5 i.p.): 42 days
- Mean Animal Weight (L1210/ara-C leukemia; 100 mkd × 5 i.p.): 20.7 g
- Survival Range (L1210/ara-C leukemia; 100 mkd × 5 i.p.): 8 to 9 days
- % ILS (increase in life span) (L1210/ara-C leukemia; 100 mkd × 5 i.p., NS): 28%
- Median survival (L1210/ara-C leukemia; 100 mkd × 5 i.p.): 9 days
- Mean ± SD survival (L1210/ara-C leukemia; 100 mkd × 5 i.p.): 8.6 ± 0.2 days
- Mean Animal Weight (L1210/ara-C leukemia; 200 mkd × 5 i.p.): 21.0 g
- Survival Range (L1210/ara-C leukemia; 200 mkd × 5 i.p.): 8 to 9 days
- % ILS (increase in life span) (L1210/ara-C leukemia; 200 mkd × 5 i.p., P <.01): 28%
- Median survival (L1210/ara-C leukemia; 200 mkd × 5 i.p.): 9 days
- Mean ± SD survival (L1210/ara-C leukemia; 200 mkd × 5 i.p.): 8.8 ± 0.2 days
- Mean Animal Weight (L1210/ara-C leukemia; 500 mkd × 5 i.p.): 18.6 g
- Survival Range (L1210/ara-C leukemia; 500 mkd × 5 i.p.): 10 to 11 days
- % ILS (increase in life span) (L1210/ara-C leukemia; 500 mkd × 5 i.p., P <.01): 57%
- Median survival (L1210/ara-C leukemia; 500 mkd × 5 i.p.): 11 days
- Mean ± SD survival (L1210/ara-C leukemia; 500 mkd × 5 i.p.): 10.8 ± 0.2 days
- cross resistance to ara-C and 5-FU (L1210/ara-C leukemia; summary of L1210/ara-C and L1210/5-FU tests): not cross resistant
- IC50 (L1210 leukemia cells [1]): 55 µM
- effect on tumor size (Lewis lung carcinoma; 400 mg/kg/day i.p., days 3-7): statistically significant decrease in tumor size
- increase of median day to reach half maximal tumor size (Lewis lung carcinoma; 400 mg/kg/day i.p., days 3-7, normalized for animal weight, from day 19 to 23): 4 days
- Survival Range (Lewis lung carcinoma; 50 mkd × 5 i.p., days 3-7): 24 to 31 days
- % ILS (increase in life span) (Lewis lung carcinoma; 50 mkd × 5 i.p., days 3-7): 22%
- Half Maximal Tumor Volume (Lewis lung carcinoma; 50 mkd × 5 i.p., days 3-7, control 19, p < 0.05): 20.5 days
- Median survival (Lewis lung carcinoma; 50 mkd × 5 i.p., days 3-7): 27 days
- Survival Range (Lewis lung carcinoma; 200 mkd × 5 i.p., days 3-7): 17 to 32 days
- % ILS (increase in life span) (Lewis lung carcinoma; 200 mkd × 5 i.p., days 3-7): 40%
- Half Maximal Tumor Volume (Lewis lung carcinoma; 200 mkd × 5 i.p., days 3-7, control 19): 21 days
- Median survival (Lewis lung carcinoma; 200 mkd × 5 i.p., days 3-7): 31 days
- Survival Range (Lewis lung carcinoma; 400 mkd × 5 i.p., days 3-7): 21 to 31 days
- % ILS (increase in life span) (Lewis lung carcinoma; 400 mkd × 5 i.p., days 3-7, p < 0.05): 40%
- Half Maximal Tumor Volume (median day to reach half maximal tumor size) (Lewis lung carcinoma; 400 mkd × 5 i.p., days 3-7, control 19, p < 0.05): 23 days
- Median survival (Lewis lung carcinoma; 400 mkd × 5 i.p., days 3-7): 31 days
- effect on lifespan and tumor size (Lewis lung carcinoma; s.c. solid tumors (Lewis lung carcinoma or M5076 sarcoma)): increased their lifespan and significantly decreased tumor size
- reversal of cellular cytotoxicity by exogenous nucleosides (L1210 leukemia cells [2]; exogenous thymidine, uridine or deoxyuridine, tissue culture): not reversed by exogenous thymidine, uridine or deoxyuridine
- effect of added nucleoside on the IC50 (L1210 leukemia cells [2]; thymidine (1×10^-5 M), uridine (1×10^-4 M) or deoxyuridine (1×10^-5 M)): < 10%
